Values joined by “and” are separate entries in the source; they are usually repeats but may differ in a detail not shown here. Equal entries are not always repeated.
Experiments:
[1] = biological target: T1, Alpha-2A adrenergic receptor (Bos taurus, UniProt Q28838)
T1 sequence (Q28838 whole entry): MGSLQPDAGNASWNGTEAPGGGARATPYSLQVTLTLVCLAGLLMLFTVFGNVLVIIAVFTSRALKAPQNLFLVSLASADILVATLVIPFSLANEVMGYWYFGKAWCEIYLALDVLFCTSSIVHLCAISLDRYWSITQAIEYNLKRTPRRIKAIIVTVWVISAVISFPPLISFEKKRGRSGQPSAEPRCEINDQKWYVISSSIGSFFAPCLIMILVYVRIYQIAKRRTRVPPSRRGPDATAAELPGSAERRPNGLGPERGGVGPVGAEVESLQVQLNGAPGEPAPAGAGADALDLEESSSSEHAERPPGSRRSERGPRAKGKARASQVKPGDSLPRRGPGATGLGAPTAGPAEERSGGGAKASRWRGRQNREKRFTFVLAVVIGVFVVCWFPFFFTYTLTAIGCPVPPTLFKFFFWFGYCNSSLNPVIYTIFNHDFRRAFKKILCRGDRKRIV

[2] = biological target: T2, Alpha-2B adrenergic receptor (Didelphis virginiana, UniProt O77715)
T2 sequence (O77715 whole entry): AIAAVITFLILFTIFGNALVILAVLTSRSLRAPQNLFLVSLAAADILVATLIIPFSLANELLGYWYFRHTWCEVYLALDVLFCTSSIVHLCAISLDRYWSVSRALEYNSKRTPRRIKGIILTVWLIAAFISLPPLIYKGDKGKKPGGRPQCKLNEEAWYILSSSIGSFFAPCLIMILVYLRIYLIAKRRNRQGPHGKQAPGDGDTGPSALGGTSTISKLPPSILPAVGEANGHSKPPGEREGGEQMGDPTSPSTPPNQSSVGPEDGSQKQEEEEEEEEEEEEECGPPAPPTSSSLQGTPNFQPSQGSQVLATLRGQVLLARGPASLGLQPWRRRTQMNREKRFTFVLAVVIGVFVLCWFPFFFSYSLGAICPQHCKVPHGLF

[3] = biological target: T3, Alpha-2C adrenergic receptor (Rattus norvegicus, UniProt P22086)
T3 sequence (P22086 whole entry): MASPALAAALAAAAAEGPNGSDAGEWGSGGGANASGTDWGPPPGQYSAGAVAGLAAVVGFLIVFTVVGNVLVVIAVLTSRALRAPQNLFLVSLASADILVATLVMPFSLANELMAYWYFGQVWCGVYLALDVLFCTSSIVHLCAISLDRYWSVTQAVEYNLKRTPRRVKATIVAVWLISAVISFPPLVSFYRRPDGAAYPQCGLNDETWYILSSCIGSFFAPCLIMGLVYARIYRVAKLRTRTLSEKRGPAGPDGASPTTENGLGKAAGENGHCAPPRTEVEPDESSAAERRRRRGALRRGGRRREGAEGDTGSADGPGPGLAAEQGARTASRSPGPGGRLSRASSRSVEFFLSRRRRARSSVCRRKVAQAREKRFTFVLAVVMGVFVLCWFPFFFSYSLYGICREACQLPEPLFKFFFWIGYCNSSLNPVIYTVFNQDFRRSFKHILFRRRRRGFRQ

[4] = biological target: T4, Alpha-2A adrenergic receptor (Homo sapiens, UniProt P08913)
T4 sequence (P08913 whole entry): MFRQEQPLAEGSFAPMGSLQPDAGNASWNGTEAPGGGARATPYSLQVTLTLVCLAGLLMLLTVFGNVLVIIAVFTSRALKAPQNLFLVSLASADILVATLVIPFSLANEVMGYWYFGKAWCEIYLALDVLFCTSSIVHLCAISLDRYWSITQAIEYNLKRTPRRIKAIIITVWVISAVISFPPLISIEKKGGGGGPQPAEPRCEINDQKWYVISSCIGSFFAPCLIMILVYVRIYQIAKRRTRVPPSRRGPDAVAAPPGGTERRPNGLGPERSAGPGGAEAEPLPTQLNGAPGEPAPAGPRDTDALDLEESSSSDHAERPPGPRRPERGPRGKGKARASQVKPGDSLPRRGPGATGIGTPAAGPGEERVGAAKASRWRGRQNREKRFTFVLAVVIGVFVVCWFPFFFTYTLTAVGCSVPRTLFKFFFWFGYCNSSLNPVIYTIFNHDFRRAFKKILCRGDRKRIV

**Q.** Which results are given for `O=C1NCN(c2ccccc2)C12CCN(CC1COc3ccccc3O1)CC2` (stereo unspecified) [8-(2,3-Dihydro-benzo[1,4]dioxin-2-ylmethyl)-1-phenyl-1,3,8-triaza-spiro[4.5]decan-4-one]?
**A.** Ki [1]: 9.33 nM and 12 nM; Ki [2]: 0.26 nM and 0.61 nM; Ki [3]: 0.28 nM and 0.7 nM; Ki [4]: 9.54 nM

**Q.** What does the source list for `COc1cc2nc(N3CCN(C(=O)c4ccco4)CC3)nc(N)c2cc1OC` [[3H]-Minipress]?
**A.** Ki [1]: 692 nM and 1320 nM; Ki [2]: 132 nM and 117 nM

**Q.** What does the source list for `NCC(O)c1ccc(O)c(O)c1` (stereo not drawn) [Noradrenaline,(+)]?
**A.** Ki [1]: 933 nM and 1050 nM; Ki [2]: 28.2 nM

**Q.** Which results are given for `COc1cccc(OC)c1OCCNCC1Oc2ccccc2OC1c1ccccc1` (stereo unspecified) [NSC_185453]?
**A.** Ki [1]: 7.58 nM and 13.5 nM; Ki [2]: 0.63 nM and 1 nM; Ki [3]: 7.76 nM and 18.6 nM; Ki [4]: 2.18 nM

**Q.** How did the Ki [1] turn out when `CN1C[C@H](Cn2ccnc2-c2ccccc2)C[C@@H]2c3cccc4[nH]c(Br)c(c34)C[C@H]21` [BAM-1303] was run?
**A.** 53.7 nM and 200 nM

**Q.** What about the Ki [2] of the same molecule?
**A.** 0.38 nM and 0.47 nM

**Q.** What about the Ki [3] of the same molecule?
**A.** 6.91 nM and 8.7 nM

**Q.** What about the Ki [4] of the same molecule?
**A.** 0.93 nM

**Q.** Which Ki [1] does the source give for `CC(C)=CCOc1ccc(Cl)c2c1CCN(C)CC2` [SK&F-104078] here?
**A.** 81.3 nM and 145 nM

**Q.** And the Ki [2]?
**A.** 42.6 nM and 55 nM

**Q.** And the Ki [3]?
**A.** 49 nM and 69.2 nM

**Q.** And the Ki [4]?
**A.** 39.8 nM

**Q.** With `Cc1cc(C(C)(C)C)c(O)c(C)c1CC1=NCCN1` [SMR000059324] as the molecule, how does the Ki [1] read?
**A.** 38 nM and 33.1 nM

**Q.** What about the Ki [2] of the same molecule?
**A.** 15.1 nM

**Q.** How did the Ki [1] turn out when `COc1ccccc1N1CCN(CCC2C(=O)c3ccccc3C(C)(C)C2=O)CC1` (stereo unspecified) [NSC_122211] was run?
**A.** 148 nM and 324 nM

**Q.** And the Ki [2]?
**A.** 12.9 nM and 46.8 nM

**Q.** And the Ki [3]?
**A.** 1.58 nM and 2.29 nM

**Q.** And the Ki [4]?
**A.** 219 nM
